Assay results: PubChem BioAssay AID328 (DTP/NCI, 2004)
“And” between values parts separate entries of the source, which are not always exact repeats. Equal values may be shown once. Toxic doses and inconclusive results are not listed. How the source made its calls: active means survival T/C of 150% or more; inactive means T/C below 125% in these data.

System: BDF1 mice, P388 leukemia ip, median survival T/C
Assay: NCI In Vivo Anticancer Drug Screen. Data for tumor model P388 Leukemia (intraperitoneal) in B6D2F1 (BDF1) mice
Conditions: endpoint: median survival time, higher = longer survival
In short: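 Steps: implant the tumour, treat one group with compound and another with vehicle, record survival, then divide treated by control.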

[1] = dose: 50.0 mg/kg/injection, schedule: Q04DX003 (ip), vehicle: Klucel (hydroxypropylcellulose) (HPC)
[2] = dose: 25.0 mg/kg/injection, schedule: Q01DX009 (ip), vehicle: saline with Tween-80
[3] = dose: 25.0 mg/kg/injection, schedule: Q01DX009 (ip), vehicle: saline
[4] = dose: 100.0 mg/kg/injection, schedule: Q01DX009 (ip), vehicle: saline
[5] = dose: 100.0 mg/kg/injection, schedule: Q04DX003 (ip), vehicle: saline with Tween-80
[6] = dose: 200.0 mg/kg/injection, schedule: Q04DX003 (ip), vehicle: saline with Tween-80
[7] = dose: 100.0 mg/kg/injection, schedule: Q01DX009 (ip), vehicle: saline with Tween-80
[8] = dose: 200.0 mg/kg/injection, schedule: Q01DX009 (ip), vehicle: saline with Tween-80

Measured: T/C

C[N+](C)(CC(=O)Nc1ccc(Cl)c(C(F)(F)F)c1)Cc1ccc(Cl)cc1
inactive: dose: 25.0 mg/kg/injection, schedule: Q04DX003 (ip), vehicle: saline sonified 110 % of control | dose: 50.0 mg/kg/injection, schedule: Q04DX003 (ip), vehicle: saline sonified 110 % of control | dose: 100.0 mg/kg/injection, schedule: Q04DX003 (ip), vehicle: saline sonified 90 % of control

CCC(c1ccc2cc(OC)ccc2c1)C(C(=O)O)C(=O)O (stereo not given)
inactive: [1] 87 % of control

CC(CN(C)C)CN1c2ccccc2Sc2ccccc21 (stereo not given)
inactive: dose: 6.25 mg/kg/injection, schedule: Q01DX009 (ip), vehicle: saline 100 % of control | dose: 6.25 mg/kg/injection, schedule: Q04DX003 (ip), vehicle: saline 100 % of control | dose: 12.5 mg/kg/injection, schedule: Q01DX009 (ip), vehicle: saline 108 % of control and 90 % of control | dose: 12.5 mg/kg/injection, schedule: Q04DX003 (ip), vehicle: Klucel (hydroxypropylcellulose) (HPC) 100 % of control | dose: 12.5 mg/kg/injection, schedule: Q04DX003 (ip), vehicle: saline with Tween-80 110 % of control | dose: 12.5 mg/kg/injection, schedule: Q04DX003 (ip), vehicle: saline 108 % of control | [2] 109 % of control | [3] 112 % of control and 109 % of control | dose: 25.0 mg/kg/injection, schedule: Q04DX003 (ip), vehicle: Klucel (hydroxypropylcellulose) (HPC) 124 % of control | dose: 25.0 mg/kg/injection, schedule: Q04DX003 (ip), vehicle: saline 108 % of control | dose: 50.0 mg/kg/injection, schedule: Q01DX009 (ip), vehicle: saline 108 % of control | [1] 124 % of control | dose: 50.0 mg/kg/injection, schedule: Q04DX003 (ip), vehicle: saline with Tween-80 89 % of control | dose: 50.0 mg/kg/injection, schedule: Q04DX003 (ip), vehicle: saline 120 % of control

C1CC[N-]CC1.C1CC[N-]CC1.O=C(O)C(=O)O.[Pt+2]
inactive: [3] 120 % of control | dose: 80.0 mg/kg/injection, schedule: Q01DX005 (ip), vehicle: Klucel (hydroxypropylcellulose) (HPC) 123 % of control | [4] 120 % of control | dose: 200.0 mg/kg/injection, schedule: Q01DX009 (ip), vehicle: saline 100 % of control | dose: 400.0 mg/kg/injection, schedule: Q04DX003 (ip), vehicle: saline 118 % of control

Cc1cc(N2CCOCC2)nc(N2CCOCC2)c1C#N
inactive: dose: 100.0 mg/kg/injection, schedule: Q01DX005 (ip), vehicle: saline with Tween-80 91 % of control | dose: 200.0 mg/kg/injection, schedule: Q01DX005 (ip), vehicle: saline with Tween-80 99 % of control

COP(=O)(OC)OC=C(Cl)Cl
inactive: dose: 6.25 mg/kg/injection, schedule: Q01DX009 (ip), vehicle: saline with Tween-80 100 % of control | dose: 12.5 mg/kg/injection, schedule: Q01DX009 (ip), vehicle: saline with Tween-80 103 % of control | [2] 102 % of control

CC1(C)SC2C(NC(=O)Cc3ccccc3)C(=O)N2C1C(=O)O (stereo not given)
inactive: [4] 90 % of control | dose: 400.0 mg/kg/injection, schedule: Q01DX009 (ip), vehicle: saline 100 % of control

Cc1ccc(C(=O)/C=C/c2ccccc2O)cc1
inactive: dose: 50.0 mg/kg/injection, schedule: Q01DX009 (ip), vehicle: Klucel (hydroxypropylcellulose) (HPC) 99 % of control | dose: 100.0 mg/kg/injection, schedule: Q01DX009 (ip), vehicle: Klucel (hydroxypropylcellulose) (HPC) 109 % of control | dose: 200.0 mg/kg/injection, schedule: Q01DX009 (ip), vehicle: Klucel (hydroxypropylcellulose) (HPC) 107 % of control | dose: 400.0 mg/kg/injection, schedule: Q01DX009 (ip), vehicle: Klucel (hydroxypropylcellulose) (HPC) 101 % of control

OCCN(CCO)c1cc(O)cc(O)c1
inactive: [5] 106 % of control | [6] 120 % of control | dose: 400.0 mg/kg/injection, schedule: Q04DX003 (ip), vehicle: saline with Tween-80 117 % of control

O=C(C[n+]1ccccc1)N/N=C/c1ccc(O)c(O)c1
inactive: [7] 100 % of control | [5] 95 % of control | [8] 104 % of control | [6] 86 % of control

COP1(=O)OCC2OC(n3cnc4c(N)ncnc43)C(O)C2O1 (stereo not given)
inactive: [4] 88 % of control

NNc1ccc([N+](=O)[O-])c2[nH][nH]c(=O)c12
inactive: dose: 50.0 mg/kg/injection, schedule: Q01DX009 (ip), vehicle: saline with Tween-80 105 % of control | [7] 107 % of control | [8] 107 % of control
